Test results reported in the supplement of paper PMC11208160.

assay: recombinant UMI read abundance after kanamycin selection (control-corrected) (log10(CPM+1)); higher = more efficient recombination; extreme values may be limits of the assay; sequences stand for … in AGTGCAGAGAAAATCGGCCAGTTTTCTCTGCCTGCAGTCCGCATGCCGTGGGACCCCTTGGGTTCTAACCTGTTGCCTAGATTTATGCAGCGGACTGCCTTTCTCCCAAAGTGATAAACCGG…AGGTTGGTTTCACT; site = the 11-nt donor
How it was run: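 Values are reported as log10(CPM+1), obtained by converting sequencing counts to CPM, averaging replicates and scaling by control-derived factors. The counts came from recombinant UMIs amplified by PCR across the donor–target junction. These UMIs came from a pooled Escherichia coli screen of donor and donor-binding-loop pairs for the IS621 bridge recombinase, plated with IPTG (0.07 mM) plus kanamycin or left unselected, in two replicates each.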
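Note: IS621 bridge recombinase in Escherichia coli cells against a fixed T5 target plasmid.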

Sequence | recombinant UMI read abundance (log10)
GCGGCTTCATGGACCGGTTTTCCCGGTAATCCGTATTTGTC (site GCGGCTTCTGA) | 1.81
GCGGGCACATGGACCGGTTTTCCCGGTAATCCGTATTTGTG (site GCGGGCACTCA) | 0.836
GCGGTGCCATGGACCGGTTTTCCCGGTAATCCGTATTTGGC (site GCGGTGCCTGC) | 0
GCGGTGTCATGGACCGGTTTTCCCGGTAATCCGTATTTGAA (site GCGGTGTCTTT) | 2.41
GCGTATTCATGGACCGGTTTTCCCGGTAATCCGTATTTGCC (site GCGTATTCTGG) | 2.14
GCGTATTCATGGACCGGTTTTCCCGGTAATCCGTATTTGTG (site GCGTATTCTCA) | 2.49
GCGTCGGCATGGACCGGTTTTCCCGGTAATCCGTATTTGGA (site GCGTCGGCTTC) | 0.519
GCGTGCCCATGGACCGGTTTTCCCGGTAATCCGTATTTGAT (site GCATGCCCTAT) | 0.417
GCGTGCCCATGGACCGGTTTTCCCGGTAATCCGTATTTGAT (site GCCTGCCCTAT) | 0.0179
GCGTGCCCATGGACCGGTTTTCCCGGTAATCCGTATTTGAT (site GCGTGCCCTAT) | 0.221
GCGTGCCCATGGACCGGTTTTCCCGGTAATCCGTATTTGAT (site GCTTGCCCTAT) | 0.0133
GCGTTCTCATGGACCGGTTTTCCCGGTAATCCGTATTTGAA (site GCGTTCTCTTT) | 2.47
GCTACCTCATGGACCGGTTTTCCCGGTAATCCGTATTTGGC (site GCTACCTCTGC) | 2.47
GCTACTGCATGGACCGGTTTTCCCGGTAATCCGTATTTGCA (site GCTACTGCTAG) | 0
GCTACTGCATGGACCGGTTTTCCCGGTAATCCGTATTTGCA (site GCTACTGCTCG) | 0.00835
GCTACTGCATGGACCGGTTTTCCCGGTAATCCGTATTTGCA (site GCTACTGCTGG) | 0
GCTACTGCATGGACCGGTTTTCCCGGTAATCCGTATTTGCA (site GCTACTGCTTG) | 2.78
GCTACTGCATGGACCGGTTTTCCCGGTAATCCGTATTTGCG (site GCTACTGCTAG) | 0.345
GCTACTGCATGGACCGGTTTTCCCGGTAATCCGTATTTGCG (site GCTACTGCTCG) | 1.27

Sequence | recombinant UMI read abundance (log10)
GCTACTGCATGGACCGGTTTTCCCGGTAATCCGTATTTGCG (site GCTACTGCTGG) | 0
GCTACTGCATGGACCGGTTTTCCCGGTAATCCGTATTTGCG (site GCTACTGCTTG) | 1.35
GCTACTGCATGGACCGGTTTTCCCGGTAATCCGTATTTGTC (site GCTACTGCTGA) | 1.83
GCTACTGCATGGACCGGTTTTCCCGGTAATCCGTATTTGTC (site GCTACTGCTGC) | 0
GCTACTGCATGGACCGGTTTTCCCGGTAATCCGTATTTGTC (site GCTACTGCTGG) | 0.571
GCTACTGCATGGACCGGTTTTCCCGGTAATCCGTATTTGTC (site GCTACTGCTGT) | 0.512
GCTAGAACATGGACCGGTTTTCCCGGTAATCCGTATTTGAG (site ACTAGAACTCT) | 0.959
GCTAGAACATGGACCGGTTTTCCCGGTAATCCGTATTTGAG (site CCTAGAACTCT) | 0.439
GCTAGAACATGGACCGGTTTTCCCGGTAATCCGTATTTGAG (site GCTAGAACTCT) | 1.83
GCTAGAACATGGACCGGTTTTCCCGGTAATCCGTATTTGAG (site TCTAGAACTCT) | 0.815
GCTAGGCCATGGACCGGTTTTCCCGGTAATCCGTATTTGAG (site GCTAGGCCTCT) | 0.0384
GCTATACCATGGACCGGTTTTCCCGGTAATCCGTATTTGTA (site GCTATACCTTA) | 0.0042
GCTATCTCATGGACCGGTTTTCCCGGTAATCCGTATTTGAA (site GCTATCTCTTT) | 1.86
GCTCCTGCATGGACCGGTTTTCCCGGTAATCCGTATTTGCC (site GCTACTGCTGG) | 0.902
GCTCCTGCATGGACCGGTTTTCCCGGTAATCCGTATTTGCC (site GCTCCTGCTGG) | 0.921
GCTCCTGCATGGACCGGTTTTCCCGGTAATCCGTATTTGCC (site GCTGCTGCTGG) | 0
GCTCCTGCATGGACCGGTTTTCCCGGTAATCCGTATTTGCC (site GCTTCTGCTGG) | 0
GCTGGCCCATGGACCGGTTTTCCCGGTAATCCGTATTTGAT (site GCTAGCCCTAT) | 0.0226
